In patent US7915268B2, “8-substituted 2-(benzimidazolyl)purine derivatives for immunosuppression” (Wyeth LLC, priority 2006, dated 2011) one finds IC50 data, which are given here for 50 compounds.

The test concerns the target T1, Jak3 (Homo sapiens, UniProt P52333).
T1 construct: catalytic domain of Jak3 (508aa to 1124aa); made in house; host or cells: Sf9 insect cells (baculovirus, pFastBac 1)
T1 sequence (P52333 508-1124): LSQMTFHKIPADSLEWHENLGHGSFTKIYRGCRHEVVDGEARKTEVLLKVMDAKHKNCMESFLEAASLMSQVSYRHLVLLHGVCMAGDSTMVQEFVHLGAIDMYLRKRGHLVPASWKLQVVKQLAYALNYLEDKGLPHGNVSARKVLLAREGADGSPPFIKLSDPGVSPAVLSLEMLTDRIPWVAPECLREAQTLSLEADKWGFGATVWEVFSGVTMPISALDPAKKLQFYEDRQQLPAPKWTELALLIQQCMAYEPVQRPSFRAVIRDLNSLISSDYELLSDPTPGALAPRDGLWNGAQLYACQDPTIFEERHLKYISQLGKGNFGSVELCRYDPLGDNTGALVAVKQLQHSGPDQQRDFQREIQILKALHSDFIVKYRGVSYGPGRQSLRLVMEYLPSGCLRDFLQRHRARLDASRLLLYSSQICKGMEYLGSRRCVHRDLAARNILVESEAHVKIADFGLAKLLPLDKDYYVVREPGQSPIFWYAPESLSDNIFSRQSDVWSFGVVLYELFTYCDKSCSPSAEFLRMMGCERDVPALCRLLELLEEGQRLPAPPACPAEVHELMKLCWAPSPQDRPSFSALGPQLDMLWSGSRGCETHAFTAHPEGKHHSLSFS
Put plainly: Jak3 Kinase Assay (HTRF, GST-Jak3 catalytic domain). The format is biochemical. Conditions: 1 μM ATP, 60-min incubation, read-out: Jak 3 (Converted). As to the method:
Human Jak3 cDNA was amplified by PCR. A fragment encoding the catalytic domain of Jak3 (508aa to 1124aa) was ligated with GST at 5′ end. This fused GST-Jak3 DNA fragment was cloned into the EcoRI site of the donor plasmid pFastBac 1 (Life Technologies #10359-016). The transformation, transposition, and transfection of insect cells (Sf9) were performed according to the manufacture's instructions. The cell lysate containing recombinant GST-Jak3 was used in the kinase assay. Anti-GST antibody (10 μg/ml, Sigma #G1417) was coated onto a 384-well plate at 4° C. overnight. Cell lysate containing GST-Jak3 (1:100 dilution) was added to the anti-GST coated plates, and GST-Jak3 was captured by immobilized anti-GST antibody. Testing compounds and substrate mix (50 mM HEPES, pH 7, 0.5 mM Na3VO4, 25 mM MgCl2, 1 mM DTT, 0.005% BSA, 1 μM ATP, and 4.5 μg/ml biotinyl poly-Glu, Ala, Tyr) were added to the plate to initiate the reaction. After a 60-min incubation, the reaction was stopped by 4 mM EDTA, and phosphorylation of biotinyl poly-Glu, Ala, Tyr was detected using 17 μg/ml Cy5-streptavidin (Amersham, #PA92005) and 2.7 μg/ml Europium-conjugated anti-phosphotyrosine antibody (PerkinElmer #AD0069) using homogeneous time-resolved fluorescence (HTRF) technology.
For orientation: TR-FRET usually uses a lanthanide donor and a delayed reading to cut background.
As for `CO[C@H]1CC[C@H](n2c(C)nc3cnc(-n4cnc5ccc(Cl)cc54)nc32)CC1` [Example 73], the IC50 is 100 to 1000 nM.
As for `Cn1cccc1-c1nc2cnc(-n3cnc4ccc(F)cc43)nc2n1C1CCOCC1` [Example 50], the IC50 was 100 to 1000 nM.
Consider `Fc1ccc2ncn(-c3ncc4nc(-c5ncc[nH]5)n(C5CCOCC5)c4n3)c2c1` [Example 33, 2-(6-Fluoro-1H-benzo[d]imidazol-1-yl)-8-(1H-imidazol-2-yl)-9-(tetrahydro-2H-pyran-4-yl)-9H-purine], for which the IC50 is 100 to 1000 nM.
For the compound `CO[C@H]1CC[C@H](n2c(-c3cncnc3)nc3cnc(-n4cnc5ccc(Cl)cc54)nc32)CC1` [Example 29], the IC50 lay in the range of 100 to 1000 nM.
For the compound `Cc1ccc(-c2nc3cnc(-n4cnc5ccc(F)cc54)nc3n2C2CCOCC2)o1` [Example 52], the IC50 is 100 to 1000 nM.
Take `Cc1ccc([C@@H](C)n2c(C)nc3cnc(-n4cnc5ccc(C#N)cc54)nc32)o1` [Example 99]: the IC50 lay within 100 to 1000 nM.
With `Cc1nc2cnc(-n3cnc4ccccc43)nc2n1[C@@H]1CCOc2c(F)cccc21` [Example 81, 2-(1H-benzo[d]imidazol-1-yl)-9-((R)-8-fluorochroman-4-yl)-8-methyl-9H-purine] the figure was less than 100 nM; with `Cc1nc2cnc(-n3cnc4ccccc43)nc2n1Cc1ccccc1` [Example 82], more than 1000 nM; with `N#Cc1ccc2ncn(-c3ncc4nc(Nc5cccnc5)n(C5CCOCC5)c4n3)c2c1` [Example 107], less than 100 nM.
For `Cc1nc2cnc(-n3cnc4ccc(C#N)cc43)nc2n1[C@@H]1CC[C@@H](O)c2ccccc21` [Example 100, 3-(9-((1R,4R)-4-Hydroxy-1,2,3,4-tetrahydronaphthalen-1-yl)-8-methyl-9H-purin-2-yl)-3H-benzo[d]imidazole-5-carbonitrile], the IC50 was less than 100 nM.
Turning to `N#Cc1ccc2ncn(-c3ncc4nc(-c5cccnc5)n([C@@H]5CCOc6c(F)cccc65)c4n3)c2c1` [Example 5], the IC50 was less than 100 nM.
Regarding `Fc1ccc2ncn(-c3ncc4nc(-c5cccc(OC(F)(F)F)c5)n(C5CCOCC5)c4n3)c2c1` [Example 58], the IC50 is more than 1000 nM.
With `CC(=O)Nc1ccc(-c2nc3cnc(-n4cnc5ccc(C#N)cc54)nc3n2C2CCOCC2)cc1` [Example 7] the figure was less than 100 nM.
For `N#Cc1ccc2ncn(-c3ncc4nc(-c5cnc(N)nc5)n(C5CCOCC5)c4n3)c2c1` [Example 9], the IC50 is less than 100 nM.
With `Fc1ccc2ncn(-c3ncc4nc(-c5cnc[nH]5)n(C5CCOCC5)c4n3)c2c1` [Example 30] the figure was 100 to 1000 nM; with `Fc1ccc2ncn(-c3ncc4nc(-c5cccnc5)n(C5CCOCC5)c4n3)c2c1` [Example 37], less than 100 nM; with `Cc1nc2cnc(-n3cnc4ccc(C#N)cc43)nc2n1C1CCOc2ccc(F)cc21` (centres unmarked) [Example 24], less than 100 nM.
With `Cc1nc2cnc(-n3cnc4ccccc43)nc2n1C1COCc2c(F)cccc21` (centres unmarked) [Example 80], the IC50 was in the range of 100 to 1000 nM.
Turning to `N#Cc1ccc2ncn(-c3ncc4nc(Nc5cccc(C(F)(F)F)c5)n([C@@H]5CCOc6ccccc65)c4n3)c2c1` [Example 106], the IC50 was 100 to 1000 nM.
Regarding `Fc1ccc2ncn(-c3ncc4nc(-c5ccncn5)n(C5CCOCC5)c4n3)c2c1` [Example 69], the IC50 was less than 100 nM.
`N#Cc1ccc2ncn(-c3ncc4nc(NCCN5CCCCC5)n(C5CCOCC5)c4n3)c2c1` [Example 94]: the IC50 is less than 100 nM.
`Fc1ccc2ncn(-c3ncc4nc(-c5ccc(F)nc5)n([C@@H]5CCOc6c(F)cccc65)c4n3)c2c1` [Example 103, 2-(6-fluoro-1H-benzo[d]imidazol-1-yl)-9-((R)-8-fluorochroman-4-yl)-8-(6-fluoropyridin-3-yl)-9H-purine]: the IC50 is less than 100 nM.
With `Oc1cccc(-c2nc3cnc(-n4cnc5ccc(Cl)cc54)nc3n2C2CCOCC2)c1` [Example 40] the figure was less than 100 nM; with `Cc1nc2cnc(-n3cnc4ccc(C#N)cc43)nc2n1C1CCOCC1` [Example 25, 3-(8-Methyl-9-(tetrahydro-2H-pyran-4-yl)-9H-purin-2-yl)-3H-benzo[d]imidazole-5-carbonitrile], less than 100 nM; with `Cc1nc2cnc(-n3cnc4ccc(F)cc43)nc2n1[C@@H]1CCOc2ccccc21` [Example 78], less than 100 nM.
Turning to `Fc1ccc2ncn(-c3ncc4nc(-c5ccncc5)n([C@@H]5CCOc6c(F)cccc65)c4n3)c2c1` [Example 49], the IC50 was less than 100 nM.
In the case of `N#Cc1ccc2ncn(-c3ncc4nc(-c5cncnc5)n([C@@H]5CCOc6c(F)cc(F)cc65)c4n3)c2c1` [Example 15], the IC50 was less than 100 nM.
Turning to `Oc1ccccc1-c1nc2cnc(-n3cnc4ccc(F)cc43)nc2n1C1CCOCC1` [Example 44], the IC50 was in the range of 100 to 1000 nM.
`CCc1nc2cnc(-n3cnc4ccc(F)cc43)nc2n1[C@@H]1CCOc2ccccc21` [Example 79]: the IC50 was less than 100 nM.
On to `Nc1ncc(-c2nc3cnc(-n4cnc5ccc(F)cc54)nc3n2C2CCOCC2)cn1` [Example 59], for which the IC50 was less than 100 nM.
For `Nc1nccc(-c2nc3cnc(-n4cnc5ccc(Cl)cc54)nc3n2C2CCOCC2)n1` [Example 43], the IC50 is less than 100 nM.
For the compound `N#Cc1ccc2ncn(-c3ncc4nc(-c5ccccc5)n(C5CCOCC5)c4n3)c2c1` [Example 16], the IC50 is less than 100 nM.
For the compound `O=c1ccc(-c2nc3cnc(-n4cnc5ccc(F)cc54)nc3n2C2CCOCC2)c[nH]1` [Example 61], the IC50 was 100 to 1000 nM.
In the case of `N#Cc1ccc2ncn(-c3ncc4nc(Nc5ccc(S(N)(=O)=O)cc5)n(C5CCOCC5)c4n3)c2c1` [Example 105, 4-(2-(6-cyano-1H-benzo[d]imidazol-1-yl)-9-(tetrahydro-2H-pyran-4-yl)-9H-purin-8-ylamino)benzenesulfonamide], the IC50 was less than 100 nM.
Regarding `Clc1ccc2ncn(-c3ncc4nc(-c5cncnc5)n(C5CCOCC5)c4n3)c2c1` [Example 65], the IC50 is less than 100 nM.
Take `O[C@@H]1CC[C@@H](n2c(-c3cncnc3)nc3cnc(-n4cnc5ccc(F)cc54)nc32)c2ccccc21` [Example 112, (1R,4R)-4-(2-(6-Fluoro-1H-benzo[d]imidazol-1-yl)-8-(pyrimidin-5-yl)-9H-purin-9-yl)-1,2,3,4-tetrahydronaphthalen-1-ol]: the IC50 was less than 100 nM.
In the case of `Cc1ccccc1-c1nc2cnc(-n3cnc4ccc(C#N)cc43)nc2n1C1CCOCC1` [Example 3], the IC50 fell in the range of 100 to 1000 nM.
For the compound `COCCCn1c(-c2ccccc2)nc2cnc(-n3cnc4ccccc43)nc21` [Example 85], the IC50 is more than 1000 nM.
Regarding `Nc1nccc(-c2nc3cnc(-n4cnc5ccc(F)cc54)nc3n2C2CCOCC2)n1` [Example 53], the IC50 is less than 100 nM.
With `Fc1ccc2ncn(-c3ncc4nc(-c5cccc(Br)c5)n(C5CCOCC5)c4n3)c2c1` [Example 57] the figure was more than 1000 nM; with `N#Cc1ccc2ncn(-c3ncc4nc(-c5cncnc5)n([C@@H]5CCOc6ccccc65)c4n3)c2c1` [Example 11], less than 100 nM.
`Fc1ccc2ncn(-c3ncc4nc(-c5ccoc5)n(C5CCOCC5)c4n3)c2c1` [Example 70]: the IC50 was less than 100 nM.
As for `Fc1ccc2ncn(-c3ncc4nc(-c5ccc(Br)cn5)n(C5CCOCC5)c4n3)c2c1` [Example 64], the IC50 fell in the range of 100 to 1000 nM.
Consider `CCNc1nc2cnc(-n3cnc4ccc(C#N)cc43)nc2n1[C@@H]1CCOc2ccccc21` [Example 97], for which the IC50 is less than 100 nM.
With `Fc1ccc(-c2nc3cnc(-n4cnc5ccc(F)cc54)nc3n2C2CCOCC2)nc1` [Example 68] the figure was 100 to 1000 nM.
With `Cn1cncc1-c1nc2cnc(-n3cnc4ccc(F)cc43)nc2n1C1CCOCC1` [Example 39] the figure was less than 100 nM; with `N#Cc1ccc2ncn(-c3ncc4nc(NC5CCCC5)n([C@@H]5CCOc6ccccc65)c4n3)c2c1` [Example 98], less than 100 nM.
With `Cc1nc2cnc(-n3cnc4ccccc43)nc2n1C1CCOCC1` [Example 83] the figure was less than 100 nM.
Turning to `CCNc1nc2cnc(-n3cnc4ccc(C#N)cc43)nc2n1C1CCOCC1` [Example 96, 3-(8-(ethylamino)-9-(tetrahydro-2H-pyran-4-yl)-9H-purin-2-yl)-3H-benzo[d]imidazole-5-carbonitrile], the IC50 was less than 100 nM.
With `N#Cc1ccc2ncn(-c3ncc4nc(Cl)n(C5CCOCC5)c4n3)c2c1` [Example 101] the figure was less than 100 nM.
